Measured values reported in patent US9611295B2, “Treatment of IL-17 mediated disease by blocking SEFIR-SEFIR interactions” (THE CLEVELAND CLINIC FOUNDATION, priority 2011, dated 2017).

Tested on: IL-17-induced pulmonary inflammation
Experiment: IL-17-induced pulmonary inflammation in BALB/c mice
Type: in vivo, mouse
Protocol: FIG. 5 provides bar graph and staining data showing that a cell-permeable CC′ loop decoy peptide inhibits IL-17- and IL-25-induced pulmonary inflammation. Wild-type (WT) female BALB/c mice (n=4 mice per group) were pretreated with DMSO, scrambled peptide, or the CC′ loop decoy peptide for 4 hours, after which they were administered saline, IL-17, or IL-25 intranasally. Mice were sacrificed and analyzed 16 hours after injection with IL-17 or 4 days after injection with IL-25. […] All experiments were performed three times. *P<0.05.
It has been shown that Act1 plays an essential role in IL-17- and IL-25-mediated pulmonary inflammation. Thus, the inventors examined whether the Act1 SEFIR domain CC′ loop decoy peptide ameliorated IL-17- and IL-25-induced airway inflammation in vivo. BALB/c mice were pretreated with scrambled peptide or with the Act1 SEFIR domain CC′ loop decoy peptide for 4 hours, after which we injected the mice intranasally with IL-17 or IL-25. […] Consistently, IL-17-induced lung and airway recruitment of granulocytes was reduced in mice pretreated with the CC′ loop decoy peptide compared to that in mice pretreated with the scrambled peptide (FIG. 5C). The lower grade of pulmonary inflammation in the mice treated with the CC′ loop decoy peptide correlated with the decreased IL-17-dependent expression of genes encoding MCP-1 and GM-CSF in the lung tissues (FIG. 5D). […] IL-25-induced lung and airway recruitment of granulocytes, predominantly eosinophils, as well as mucin production, as determined by Periodic acid-Schiff (PAS) staining, were reduced in mice pretreated with the CC′ loop decoy peptide compared to that in mice pretreated with the scrambled peptide (FIG. 5G). The decreased pulmonary inflammation in […] correlated with decreased expression of genes encoding the TH2-type cytokines IL-5 and IL-13 in the lungs (FIG. 5H).
Intranasal injection of mice with IL-17 and IL-25: Wild-type BALB/c female mice were pretreated with dimethyl sulfoxide (DMSO, the solvent for peptides), scrambled peptide, or the CC′ loop decoy peptide for 4 hours, after which they underwent intranasal administration of saline, IL-17 (4 μg/mouse), or IL-25 (4 μg/mouse). For IL-25-treated mice, decoy peptides were administrated daily through intranasal injection after pretreatment. Mice were anesthetized with isoflurane and sacrificed. BAL fluid was collected 16 hours after injection with IL-17 or 4 days after injection with IL-25. A total of 0.7 ml of HL-1 medium (BioWhittaker®) was used to obtain BAL fluid through trachea with a blunt needle and a 1-ml syringe. Cytospin slide preparations were obtained with a Shandon CytoSpin III Cytocentrifuge (Shandon/Thermo Scientific). Differential leukocyte counts were obtained on cytospin slide preparations after incubation with Diff Quik Giemsa stain. Cytokines in the BAL were analyzed by MultipleX plate (Invitrogen®). H&E and PAS staining were performed on lung tissues after fixation in 10% neutral-buffered formalin and paraffin embedding to detect pulmonary inflammation and for assessment of goblet cell metaplasia and mucin accumulation in airway epithelial cells.

[1] = 4 hours pretreatment, intranasal IL-17, 16 hours, vs scrambled peptide

DRQIKIWFQNRRMKWKKLDEDEHGLHTKY [CC′ loop decoy peptide]
GM-CSF in BAL fluid [1]: substantially reduced | MCP-1 in BAL fluid [1]: substantially reduced | neutrophil counts in BAL fluid [1]: substantially reduced | neutrophil counts in BAL fluid (4 hours pretreatment, intranasal IL-17, 16 hours, vs scrambled peptide, listed as CC′ peptide): reduced accumulation | dose dependence of inhibition of IL-17-induced pulmonary inflammation (data not shown): dose-dependent manner | IL-17-dependent expression of genes encoding MCP-1 and GM-CSF in lung tissues (real-time RT-PCR): decreased | IL-17-induced lung and airway recruitment of granulocytes (H&E) (vs scrambled peptide): reduced
